In the NIST ThermoML archive (doi:10.1016/j.jct.2015.03.012):
± gives the expanded uncertainty stated by the source.

Tests used:
[1] = mn = molality of the nth substance listed, in mol/kg; conditions: 298.15 K, 101.3 kPa, Liquid, Vibrating tube method
[2] = wn = mass fraction of the nth substance listed; conditions: 298.15 K, 101.3 kPa, Liquid, Vibrating tube method

Compound: OCC1CO1 (stereo not drawn) [2,3-epoxy-1-propanol] + O
- mass density ([1]; m1 = 0.4019): 1001.85 ± 0.44 kg/m3

Compound: OC[C@@H]1CO1 [R-(+)-glycidol] + O
- mass density ([1]; m1 = 0.402): 1002.68 ± 0.27 kg/m3

Compound: OC[C@H]1CO1 [S-(-)-glycidol] + O
- mass density ([1]; m1 = 0.4554): 1002.79 ± 0.27 kg/m3

Compound: CN(C)C=O [dimethylformamide] + O
- mass density ([2]; w1 = 0.05): 996.463 ± 0.11 kg/m3
- mass density ([2]; w1 = 0.1001): 996.232 ± 0.11 kg/m3
- mass density ([2]; w1 = 0.15): 996.24 ± 0.11 kg/m3
- mass density ([2]; w1 = 0.2001): 996.402 ± 0.11 kg/m3
- mass density ([2]; w1 = 0.2502): 996.649 ± 0.11 kg/m3
